Experimental findings from patent US5955616A, “Pyrrolidine derivatives having phospholipase A2 inhibitory activity” (Shionogi & Co., Ltd., priority 1995, dated 1999) are described below.

Assay [1] relates to Prostaglandin E2 production in human fibroblasts. Briefly: Inhibition of Production of Prostaglandin E2 in Human Fibroblasts (IL-1 stimulated). The class given is cell-based. The settings on record: Fibroblast, stimulation with IL-1, read-out: Inhibitory activity Against the Production of Prostaglandin E2 in Human Fibroblasts IC50. As for the experimental part:
Experiment 2 Inhibition of Production of Prostaglandin E2 in Human Fibroblasts
From this viewpoint, the compounds of the present invention were tested for the effect on the production of prostaglandin E2 by human fibroblasts under the stimulation with IL-1 according to the method of J. M. Dayer et al (CACHECTIN/TUMOR NECROSIS FACTOR STIMULATES COLLAGENASE AND PROSTAGLANDIN E2 PRODUCTION BY HUMAN SYNOVIAL CELLS AND DERMAL FIBROBLASTS; J. M. Dayer, B. Beutlerm and A. Cerami, J. Exp. Med., 162,2163-2168, 1985).

The next assay has as its target T1, cPLA2 (Homo sapiens, UniProt P47712).
T1 sequence (P47712 1-749): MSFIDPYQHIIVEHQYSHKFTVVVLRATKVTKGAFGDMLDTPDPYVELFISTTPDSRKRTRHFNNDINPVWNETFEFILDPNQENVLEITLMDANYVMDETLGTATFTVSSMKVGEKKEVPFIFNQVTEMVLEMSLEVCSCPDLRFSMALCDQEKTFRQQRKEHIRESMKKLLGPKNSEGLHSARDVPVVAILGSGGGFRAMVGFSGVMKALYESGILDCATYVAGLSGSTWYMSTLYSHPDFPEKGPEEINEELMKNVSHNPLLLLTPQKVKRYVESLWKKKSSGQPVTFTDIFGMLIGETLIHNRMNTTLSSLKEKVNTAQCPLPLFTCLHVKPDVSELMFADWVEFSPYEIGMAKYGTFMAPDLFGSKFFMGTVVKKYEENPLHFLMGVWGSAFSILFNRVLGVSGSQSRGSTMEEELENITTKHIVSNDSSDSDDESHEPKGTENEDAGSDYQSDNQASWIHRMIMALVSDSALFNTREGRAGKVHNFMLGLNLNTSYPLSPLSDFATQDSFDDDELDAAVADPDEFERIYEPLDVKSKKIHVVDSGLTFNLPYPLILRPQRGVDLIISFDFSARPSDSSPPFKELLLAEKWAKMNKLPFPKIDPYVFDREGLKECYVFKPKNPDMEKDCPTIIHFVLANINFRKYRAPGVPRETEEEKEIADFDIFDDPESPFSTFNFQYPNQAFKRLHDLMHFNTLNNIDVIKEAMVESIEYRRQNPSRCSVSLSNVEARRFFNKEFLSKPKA
In words: cPLA2 Inhibitory activity (release of radiolabelled fatty acid from liposomes). It is filed as biochemical. The settings on record: 50 mM HEPES pH 7.4, 1 mM CaCl2, 2.5 μM radio-labeled phosphatidylcholine, 15 min at 37° C; read-out: cPLA2 Inhibition Activity IC50. The gist of the method:
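Liposomes of [14C]-arachidonoyl phosphatidylcholine/dioleoylglycerol (2:1) at 2.5 μM labelled PC in 50 mM HEPES pH 7.4 with 1 mM CaCl2, 2 mM DTT, 150 mM NaCl, 0.1 mg/ml BSA. Compound (0.4–250 μM), 4 ng enzyme, 15 min at 37 °C. Released fatty acid counted by scintillation; IC50 from % of control.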

On to `CC(C)(C)OC(=O)N1C[C@@H](SCc2ccccc2)C[C@H]1C(=O)Nc1ccc(C=C2SC(=S)NC2=O)cc1` [Compound A-17], for which the IC50 in assay [1] is 3.2 µM; on cPLA2 it was 6 µM.

`O=C1NC(=S)S/C1=C\c1ccc(NC(=O)[C@@H]2C[C@H](SCc3ccccc3)CN2S(=O)(=O)Cc2ccc(F)cc2)cc1` [Compound A-55]: the figures for the IC50 (in assay [1]; on cPLA2) were 1.1 µM and 3.4 µM, respectively.

Regarding `CS[C@H]1C[C@@H](C(=O)Nc2ccc(C=C3SC(=O)NC3=O)cc2)N(C(=O)c2ccc(-c3ccccc3)cc2)C1` [Compound A-20], the IC50 in assay [1] turned out to be 0.3 µM; on cPLA2 it was 22 µM.

Consider `COc1ccc(COC(=O)N2C[C@@H](SCc3cc(C(C)(C)C)c(OC)c(C(C)(C)C)c3)C[C@H]2CNC(=O)c2ccc(/C=C3\SC(=O)NC3=O)cc2)cc1` [Compound B-3], for which the figures for the half-inhibitory concentration (IC50) (in assay [1]; on cPLA2) were 2.1 µM and 1.2 µM, respectively.

As to `CC(=O)Nc1ccc(S(=O)(=O)N2C[C@@H](SCc3ccccc3)C[C@H]2C(=O)Nc2ccc(/C=C3\SC(=S)NC3=O)cc2)cc1` [Compound A-38], the IC50 in assay [1] was determined as 4.9 µM; on cPLA2 it was 6.4 µM.

`O=C1NC(=S)SC1=Cc1ccc(NC(=O)[C@@H]2C[C@H](SCc3ccccc3)CN2C(=O)Nc2ccccc2)cc1` [Compound A-28]: the IC50 came to 0.73 µM in assay [1] and 8.3 µM on cPLA2.

In the case of `O=C1NC(=O)/C(=C/c2ccc(CCC[C@@H]3C[C@H](SC(c4ccccc4)c4ccccc4)CN3C(=O)CCc3ccccc3)cc2)S1` [Compound E-4], the IC50 was found to be 1.9 µM in assay [1] and 3.7 µM at cPLA2.

Take `O=C1NC(=O)/C(=C/c2ccc(C(=O)NC[C@@H]3C[C@H](SC(c4ccccc4)(c4ccccc4)c4ccccc4)CN3C(=O)OCc3ccc([N+](=O)[O-])cc3)cc2)S1` [Compound B-4]: the IC50 in assay [1] was 4.6 µM; on cPLA2, 2.4 µM.

Take `COc1cc(CS[C@H]2C[C@@H](C(=O)Nc3ccc(/C=C4\SC(=O)NC4=O)cc3)N(S(=O)(=O)c3ccc(-c4ccccc4)cc3)C2)cc(OC)c1OC` [Compound A-46]: the IC50 in assay [1] was determined as 1.5 µM; at cPLA2, 7 µM.

For `COc1cc(CS[C@H]2C[C@@H](C(=O)Nc3ccc(C=C4SC(=O)NC4=O)cc3)N(C(=O)c3ccccc3)C2)cc(OC)c1OC` [Compound A-9], the IC50 in assay [1] worked out at 3 µM; on cPLA2, 5.1 µM.

As for `COc1c(C(C)(C)C)cc(CS[C@H]2C[C@@H](C(=O)Nc3ccc(C=C4SC(=O)NC4=O)cc3)N(C(=O)c3ccccc3)C2)cc1C(C)(C)C` [Compound A-4], the IC50 in assay [1] was 4.9 µM; on cPLA2, 1.6 µM.

On to `O=C1NC(=O)C(=Cc2ccc(NC(=O)[C@@H]3C[C@H](SCc4ccc5ccccc5c4)CN3C(=O)c3ccccc3)cc2)S1` [Compound A-5], for which the results for the IC50 (in assay [1]; on cPLA2) were 7 µM and 3.6 µM, respectively.

For the compound `O=C1NC(=O)C(=Cc2ccc(C(=O)NC[C@@H]3C[C@H](NC(=O)c4ccc(Cn5sccc5=O)cc4)CN3S(=O)(=O)c3ccc(-c4ccccc4)cc3)cc2)S1` [Compound J-2], the results for the IC50 (in assay [1]; at cPLA2) were 9.7 µM and 2.9 µM, respectively.

In the case of `CS[C@H]1C[C@@H](C(=O)Nc2ccccc2/C=C2\SC(=O)NC2=O)N(S(=O)(=O)c2ccc(-c3ccccc3)cc2)C1` [Compound C-1], the IC50 in assay [1] was 6.1 µM; at cPLA2, 30 µM.

For `O=C1C=CC(=O)C(CCCCCCC(=O)N2C[C@@H](OC(c3ccccc3)c3ccccc3)C[C@H]2CNC(=O)c2ccc(/C=C3\SC(=O)NC3=O)cc2)=C1` [Compound H-17], the IC50 in assay [1] amounted to 7 µM; on cPLA2, 4.9 µM.

Turning to `CS[C@H]1C[C@@H](C(=O)Nc2ccc(C=C3SC(=S)NC3=O)cc2)N(C(=O)c2ccc(-c3ccccc3)cc2)C1` [Compound A-21], the IC50 turned out to be 1 µM in assay [1] and 18 µM on cPLA2.

For `O=C1NC(=O)/C(=C/c2ccc(C(=O)NC[C@@H]3C[C@H](SC(c4ccccc4)(c4ccccc4)c4ccccc4)CN3C(=O)CCc3ccccc3)cc2)S1` [Compound B-1], the IC50 worked out at 7.5 µM in assay [1] and 0.82 µM at cPLA2.

As to `O=C1NC(=S)S/C1=C\c1ccc(NC(=O)[C@@H]2C[C@H](SCc3ccccc3)CN2S(=O)(=O)c2c(Cl)cccc2Cl)cc1` [Compound A-41], the IC50 in assay [1] turned out to be 14 µM; on cPLA2 it was 3.4 µM.

`O=C1NC(=O)/C(=C/c2ccc(NC(=O)[C@@H]3C[C@H](SCc4ccccc4)CN3S(=O)(=O)c3ccc(-c4ccccc4)cc3)cc2)S1` [Compound A-42]: the 50% inhibitory concentration (IC50) came to 3.8 µM in assay [1] and 14 µM on cPLA2.

For `O=C1NC(=S)SC1=Cc1ccc(NC(=O)[C@@H]2C[C@H](SCc3ccccc3)CN2C(=O)c2cccnc2)cc1` [Compound A-23], the IC50 in assay [1] came to 8.6 µM; at cPLA2, 10 µM.

In the case of `O=C1NC(=S)O/C1=C\c1cn(NC(=O)[C@@H]2C[C@H](SCc3ccccc3)CN2C(=O)c2ccccc2)c2ccccc12` [Compound A-61], the IC50 in assay [1] was 10 µM; on cPLA2, 1.6 µM.

Take `O=C1NC(=S)S/C1=C\c1ccc(NC(=O)[C@@H]2C[C@H](SCc3ccccc3)CN2S(=O)(=O)c2ccc(-c3ccccc3)cc2)cc1` [Compound A-43]: the IC50 in assay [1] was determined as 8.8 µM; on cPLA2, 6.8 µM.
